This passage reports T/C results from PubChem BioAssay AID328 (DTP/NCI, 2004).

The subject of this test is BDF1 mice, P388 leukemia ip, median survival T/C. Nature of the test: NCI In Vivo Anticancer Drug Screen. Data for tumor model P388 Leukemia (intraperitoneal) in B6D2F1 (BDF1) mice. As to conditions: endpoint: median survival time, higher = longer survival. The essentials:
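Compound-treated tumour-bearing mice were compared with vehicle-treated controls. Survival was recorded, and the value is the treated-group measurement divided by the control-group measurement (T/C).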

Setting [1] is: dose: 50.0 mg/kg/injection, schedule: Q01DX009 (ip), vehicle: Klucel (hydroxypropylcellulose) (HPC).
Setting [2] is: dose: 100.0 mg/kg/injection, schedule: Q04DX003 (ip), vehicle: Klucel (hydroxypropylcellulose) (HPC).
The mark [3] stands for this setting: dose: 100.0 mg/kg/injection, schedule: Q04DX003 (ip), vehicle: saline.
Setting [4] is: dose: 200.0 mg/kg/injection, schedule: Q04DX003 (ip), vehicle: saline.
Where [5] appears, read: dose: 50.0 mg/kg/injection, schedule: Q01DX009 (ip), vehicle: saline.
The mark [6] stands for this setting: dose: 50.0 mg/kg/injection, schedule: Q04DX003 (ip), vehicle: saline.
The mark [7] stands for this setting: dose: 100.0 mg/kg/injection, schedule: Q01DX009 (ip), vehicle: saline.
Where [8] appears, read: dose: 400.0 mg/kg/injection, schedule: Q04DX003 (ip), vehicle: saline.
Where [9] appears, read: dose: 25.0 mg/kg/injection, schedule: Q01DX009 (ip), vehicle: saline with Tween-80.
[10] abbreviates: dose: 50.0 mg/kg/injection, schedule: Q01DX009 (ip), vehicle: saline with Tween-80.
[11] abbreviates: dose: 100.0 mg/kg/injection, schedule: Q01DX009 (ip), vehicle: saline with Tween-80.
Setting [12] is: dose: 100.0 mg/kg/injection, schedule: Q04DX003 (ip), vehicle: saline with Tween-80.
Where [13] appears, read: dose: 400.0 mg/kg/injection, schedule: Q04DX003 (ip), vehicle: saline with Tween-80.
The mark [14] stands for this setting: dose: 200.0 mg/kg/injection, schedule: Q01DX009 (ip), vehicle: saline.
[15] abbreviates: dose: 200.0 mg/kg/injection, schedule: Q04DX003 (ip), vehicle: saline with Tween-80.

“And” between values parts separate entries of the source, which are not always exact repeats. Equal entries are not always repeated. Inconclusive results and toxic doses are left out.

For `COc1ccc(N=O)c(O)c1`, the T/C (dose: 25.0 mg/kg/injection, schedule: Q01DX009 (ip), vehicle: Klucel (hydroxypropylcellulose) (HPC)) is 100 % of control and 109 % of control; the T/C (dose: 25.0 mg/kg/injection, schedule: Q01DX010 (ip), vehicle: carboxymethylcellulose (CMC)) is 110 % of control; the T/C (dose: 25.0 mg/kg/injection, schedule: Q04DX003 (ip), vehicle: Klucel (hydroxypropylcellulose) (HPC)) was 115 % of control; the T/C under setting [1] was 100 % of control and 109 % of control; the T/C (dose: 50.0 mg/kg/injection, schedule: Q01DX010 (ip), vehicle: carboxymethylcellulose (CMC)) was 115 % of control; the T/C (dose: 50.0 mg/kg/injection, schedule: Q04DX003 (ip), vehicle: Klucel (hydroxypropylcellulose) (HPC)) is 110 % of control. The T/C was 113 % of control and 118 % of control (dose: 100.0 mg/kg/injection, schedule: Q01DX009 (ip), vehicle: Klucel (hydroxypropylcellulose) (HPC)); 110 % of control under setting [2].
On to `Nc1ncc(CNc2ccc(C(=O)NC(CCC(=O)O)C(=O)O)cc2)c(N)n1` (centres undefined), for which the T/C reads like this: under setting [1], 89 % of control and 115 % of control; (dose: 200.0 mg/kg/injection, schedule: Q01DX009 (ip), vehicle: Klucel (hydroxypropylcellulose) (HPC)) 150 % of control.
For `CCNC(C)(C)C(=O)c1ccco1`, the T/C under setting [3] was 100 % of control and the T/C under setting [4] is 100 % of control.
For the compound `COc1cc2ccncc2cc1OCc1ccccc1`, the T/C was 100 % of control (dose: 6.25 mg/kg/injection, schedule: Q04DX003 (ip), vehicle: saline); 100 % of control and 118 % of control (dose: 12.5 mg/kg/injection, schedule: Q04DX003 (ip), vehicle: saline); 86 % of control (dose: 25.0 mg/kg/injection, schedule: Q01DX009 (ip), vehicle: saline); 93 % of control and 103 % of control (dose: 25.0 mg/kg/injection, schedule: Q04DX003 (ip), vehicle: saline); 92 % of control under setting [5]; 98 % of control and 118 % of control under setting [6]. Further, the T/C reads like this: under setting [7], 104 % of control; under setting [3], 97 % of control and 100 % of control; under setting [4], 93 % of control and 120 % of control; under setting [8], 106 % of control.
With `O=S(=O)(c1ccccc1)c1nn2nnnc2c2ccccc12`, the T/C is, setting by setting: under setting [9], 86 % of control; under setting [10], 94 % of control; under setting [11], 95 % of control.
Regarding `Brc1ccc(Oc2ccccc2)cc1`, the T/C is, setting by setting: under setting [12], 122 % of control; (dose: 266.0 mg/kg/injection, schedule: Q04DX003 (ip), vehicle: saline with Tween-80) 100 % of control; under setting [13], 103 % of control; (dose: 600.0 mg/kg/injection, schedule: Q04DX003 (ip), vehicle: saline with Tween-80) 96 % of control.
Take `Cc1c(C(=O)O)cc2n(c1=O)Cc1cc3ccccc3nc1-2`: the T/C was 95 % of control under setting [5]; 92 % of control under setting [6]; 113 % of control under setting [7]; 100 % of control under setting [3]; 100 % of control under setting [14]; 96 % of control under setting [4].
Turning to `O=C1C=Cc2cccc3cccc1c23`, the T/C reads like this: (dose: 50.0 mg/kg/injection, schedule: Q04DX003 (ip), vehicle: saline sonified) 95 % of control; (dose: 100.0 mg/kg/injection, schedule: Q04DX003 (ip), vehicle: saline sonified) 95 % of control; (dose: 200.0 mg/kg/injection, schedule: Q04DX003 (ip), vehicle: saline sonified) 91 % of control.
As to `COc1ccc(Cl)cc1NC(=O)c1ccccc1C(=O)O`, the T/C runs as follows: under setting [2], 91 % of control; (dose: 200.0 mg/kg/injection, schedule: Q04DX003 (ip), vehicle: Klucel (hydroxypropylcellulose) (HPC)) 87 % of control; (dose: 400.0 mg/kg/injection, schedule: Q04DX003 (ip), vehicle: Klucel (hydroxypropylcellulose) (HPC)) 87 % of control.
As for `CCCCCCCCCCCCCCCCC(C(=O)O)C(O)(CC(=O)O)C(=O)O` (centres undefined), the T/C was 104 % of control (dose: 25.0 mg/kg/injection, schedule: Q01DX010 (ip), vehicle: saline) and 100 % of control (dose: 50.0 mg/kg/injection, schedule: Q01DX010 (ip), vehicle: saline).
With `Nc1nc(=S)c2ncn(C3OC(CO)C(O)C3O)c2[nH]1` (centres undefined), the T/C is 118 % of control (dose: 1.0 mg/kg/injection, schedule: Q01DX010 (ip), vehicle: saline); 118 % of control (dose: 2.0 mg/kg/injection, schedule: Q01DX010 (ip), vehicle: saline); 100 % of control and 109 % of control (dose: 4.0 mg/kg/injection, schedule: Q01DX010 (ip), vehicle: saline); 90 % of control and 100 % of control (dose: 8.0 mg/kg/injection, schedule: Q01DX010 (ip), vehicle: saline); 118 % of control under setting [6]; 122 % of control (dose: 132.0 mg/kg/injection, schedule: Q04DX003 (ip), vehicle: saline with Tween-80). Moreover, the T/C was 117 % of control under setting [14]; 122 % of control (dose: 300.0 mg/kg/injection, schedule: Q04DX003 (ip), vehicle: saline with Tween-80); 111 % of control (dose: 400.0 mg/kg/injection, schedule: Q01DX009 (ip), vehicle: saline).
On to `C1=CN(c2ccc(/C=C\c3ccnc4ccccc34)cc2)C=CN1c1ccc(/C=C\c2ccnc3ccccc23)cc1`, for which the T/C under setting [10] is 119 % of control.
As for `O=C1CC(c2ccc(Br)cc2)N(c2ccc([As](=O)(O)O)cc2)C1=O` (centres undefined), the T/C was 90 % of control (dose: 3.13 mg/kg/injection, schedule: Q01DX009 (ip), vehicle: saline with Tween-80); 109 % of control (dose: 6.25 mg/kg/injection, schedule: Q01DX009 (ip), vehicle: saline with Tween-80); 109 % of control (dose: 12.5 mg/kg/injection, schedule: Q01DX009 (ip), vehicle: saline with Tween-80).
In the case of `CCN(CC)CC(COC)Oc1cc(C)ccc1C(C)C` (centres undefined), the T/C under setting [10] was 100 % of control and the T/C under setting [11] was 91 % of control.
Regarding `Nc1nc(-c2cccc3ccccc23)cc2ccccc12`, the T/C reads like this: under setting [9], 115 % of control; under setting [10], 119 % of control; under setting [11], 151 % of control and 182 % of control; (dose: 200.0 mg/kg/injection, schedule: Q01DX009 (ip), vehicle: saline with Tween-80) 151 % of control.
With `CCN(CC)c1ccc2cc3ccc(=[N+](CC)CC)cc-3oc2c1`, the T/C reads like this: (dose: 2.5 mg/kg/injection, schedule: Q01DX009 (ip), vehicle: saline) 120 % of control; (dose: 7.5 mg/kg/injection, schedule: Q01DX009 (ip), vehicle: saline sonified) 120 % of control; (dose: 10.0 mg/kg/injection, schedule: Q04DX003 (ip), vehicle: saline) 104 % of control.
Consider `CC(=O)OCC(CO)(CO)CO`, for which the T/C is 100 % of control under setting [3], 100 % of control under setting [4] and 100 % of control under setting [8].
Turning to `O=C1c2ccccc2C(=O)N1c1c2ccccc2cc2ccccc12`, the T/C under setting [12] was 100 % of control, the T/C under setting [15] was 104 % of control and the T/C under setting [13] was 100 % of control.
As for `COc1ccc(C(C)c2ccccc2)cc1` (centres undefined), the T/C by setting is: under setting [12], 110 % of control; under setting [15], 105 % of control; under setting [13], 100 % of control.
